Experimental data: patent US20090288611A1, “Formula and method for treating water in fish tanks” (priority 2008, published 2009)

System: captive live fish
Test: Holding captive live fish in water treated with isoeugenol
Type: in vivo
Source text: The first key ingredient of the chemical mixture for treating the water in fish tanks of the present invention is isoeugenol (2-Methoxy-4-propenylphenol; 4-hydroxy-3-methoxy-1-propenylbenzene; 4-propenylguaiacol) C10H1202. Isoeugenol is an essential oil derived from oil of clove that has anesthetizing capabilities for fish in water. In the preferred embodiment, the formula for maintaining the life of fish contains about 43 ppm±10% of isoeugenol to slow the metabolism of captive live fish.
The benefits of treating the water in which fish are held or transported with isoeugenol are threefold. First, the metabolism of the fish is slowed and therefore the fish require less oxygen. The result is that more live fish may be held in smaller volumes of water. Also, live fish with a slower metabolism are easier to handle and fewer injuries are sustained by the fish.

[1] = overdoses up to 10 times the preferred amount of isoeugenol

## CC=Cc1ccc(O)c(OC)c1 [isoeugenol, 2-Methoxy-4-propenylphenol]
Dosage rate of about 43 ppm±10% isoeugenol in the water
  effect on fish activity (sedation): slow down fish activity sufficiently to allow handling of the live fish
Fish held in water treated with isoeugenol, metabolism calmed
  coagulation of hook wounds: hook wounds appear to coagulate faster
[1]
  fish behaviour at overdose (equilibrium): some fish may still roll over and lose equilibrium
  harm to fish at overdose: not harmful to the fish
